Source: article PMC6287471 (International Journal for Parasitology: Drugs and Drug …, 2018)
Structures can show the parent of a compound that is named as a salt.

Assays:
Type in all cases: cell-based
Hco-ACC-2 F200Y = target: T1, Hco-ACC-2 F200Y (Haemonchus contortus, UniProt A0A219KWM7, F200Y); assay: Two-electrode voltage clamp of Hco-ACC-2 F200Y mutant in Xenopus laevis oocytes
T1 sequence (A0A219KWM7 18-443 F200Y): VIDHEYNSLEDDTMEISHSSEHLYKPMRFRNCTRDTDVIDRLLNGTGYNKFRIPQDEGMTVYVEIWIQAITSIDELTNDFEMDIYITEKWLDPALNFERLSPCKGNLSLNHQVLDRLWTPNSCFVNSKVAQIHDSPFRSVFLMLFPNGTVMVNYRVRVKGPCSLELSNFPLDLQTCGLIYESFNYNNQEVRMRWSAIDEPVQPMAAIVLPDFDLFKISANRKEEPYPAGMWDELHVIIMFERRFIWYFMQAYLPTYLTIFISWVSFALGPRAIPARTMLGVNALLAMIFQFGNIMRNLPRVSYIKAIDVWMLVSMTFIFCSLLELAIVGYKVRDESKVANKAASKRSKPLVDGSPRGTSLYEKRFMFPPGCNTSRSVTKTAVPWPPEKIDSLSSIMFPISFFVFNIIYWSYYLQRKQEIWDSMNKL

Hco-ACC-2 F200W = target: T2, Hco-ACC-2 F200W (Haemonchus contortus, UniProt A0A219KWM7, F200W); assay: Two-electrode voltage clamp of Hco-ACC-2 F200W mutant in Xenopus laevis oocytes
T2 sequence (A0A219KWM7 18-443 F200W): T1 sequence (A0A219KWM7 18-443 F200Y)

Hco-ACC-2 W248Y = target: T3, Hco-ACC-2 W248Y (Haemonchus contortus, UniProt A0A219KWM7, W248Y); assay: Two-electrode voltage clamp of Hco-ACC-2 W248Y mutant in Xenopus laevis oocytes
T3 sequence (A0A219KWM7 18-443 W248Y): T1 sequence (A0A219KWM7 18-443 F200Y)

Hco-ACC-2 W248F = target: T4, Hco-ACC-2 W248F (Haemonchus contortus, UniProt A0A219KWM7, W248F); assay: Two-electrode voltage clamp of Hco-ACC-2 W248F mutant in Xenopus laevis oocytes
T4 sequence (A0A219KWM7 18-443 W248F): T1 sequence (A0A219KWM7 18-443 F200Y)

Hco-ACC-2 F200W/W248F = target: T5, Hco-ACC-2 F200W/W248F (Haemonchus contortus, UniProt A0A219KWM7, F200W/W248F)
T5 sequence (A0A219KWM7 18-443 F200W/W248F): T1 sequence (A0A219KWM7 18-443 F200Y)

[1] = EC50 ± standard error, F200Y, F200Y mutant, n ≥ 5 oocytes

Row | SMILES | EC50 (Hco-ACC-2 F200Y; [1]) [µM] | EC50 (Hco-ACC-2 F200W) [µM] | EC50 (Hco-ACC-2 W248Y) [µM] | EC50 (Hco-ACC-2 W248F) [µM] | EC50 (Hco-ACC-2 F200W/W248F) [µM] | EC50 (Hco-ACC-2 F200Y; EC50, F200Y mutant) [µM]
1 | C[N+](C)(C)CCOC(N)=O [Carbachol, Carbamoylcholine Chloride] | 9.7 ± 0.5 | 67 ± 4 | > 1000 | > 1000 | > 20000 | –
2 | C[N+](C)(C)CCO [Choline, Choline Chloride] | 650 ± 13 | 4770 ± 543 | > 1000 | > 1000 | > 20000 | –
3 | c1ccc([C@H]2CN3CCSC3=N2)cc1 [Levamisole, Levamisole Hydrochloride] | 39 ± 3 | – | > 1000 | > 1000 | > 20000 | –
4 | CC(=O)OC(C)C[N+](C)(C)C (stereo not drawn) [Methacholine, Acetyl-β-methylcholine Chloride] | 20 ± 1 | 644 ± 84 | > 1000 | > 1000 | > 20000 | –
5 | CN1CCC[C@H]1c1cccnc1 [Nicotine] | – | – | – | – | – | 277 ± 8
6 | CN1CCCN=C1/C=C/c1cccs1 [Pyrantel, Pyrantel Citrate Salt] | 44 ± 2 | 160 ± 20 | > 1000 | > 1000 | > 20000 | –
7 | CC(C[N+](C)(C)C)OC(N)=O (stereo not drawn) [Urecholine, Carbamyl-β-methylcholine chloride] | 81 ± 3 | 2150 ± 215 | > 1000 | > 1000 | > 20000 | –
